# Assay results reported in ChEMBL document CHEMBL5107975, “HIV nucleoside reverse transcriptase inhibitors” (Eur J Med Chem, 2022).
# Assays:
# [1] = Oral bioavailability in human relative to control; assay type: ADME, organism-based; conditions: in vivo
# [2] = Elimination half life in human administered po; assay type: ADME; conditions: read-out: LambdaZ (converted)
# [3] = test system: Human immunodeficiency virus 1; assay: Antiviral activity against HIV-1; assay type: functional, organism-based
# [4] = Drug elimination in human urine assessed as unchanged drug administered po relative to control; assay type: ADME, organism-based; conditions: read-out: Drug excretion
SMILES,bioavailability [1] [%],half-life [2] [h],EC50 [3] [nM],dose excreted [4] [%]
C=C1[C@H](CO)[C@@H](O)C[C@@H]1n1cnc2c(=O)[nH]c(N)nc21.O [ENTECAVIR],100,128,> 1000,62
Nc1ccn([C@@H]2CS[C@H](CO)O2)c(=O)n1 [LAMIVUDINE],,,2,
